# Calls of active or inactive are those of the source. The rule behind the calls is not given here.
# System: CCRIS mutagenicity, Ames/micronucleus/aberration tests
# Assay: CCRIS mutagenicity studies
# [1] = Test System: AMES SALMONELLA TYPHIMURIUM, Strain/Indicator: TA97, Metabolic Activation: NONE, Method: PREINCUBATION
compound,measurement,setting,value
Nc1ccccc1N,mutagenic call,"End Point: IN VITRO CHROMOSOMAL ABERRATIONS, Test System: CHINESE HAMSTER LUNG CELLS (CHL), Metabolic Activation: NONE",active; positive (structural changes)
same,mutagenic call,"End Point: IN VITRO CHROMOSOMAL ABERRATIONS, Test System: CHINESE HAMSTER LUNG CELLS (CHL), Metabolic Activation: RAT, LIVER, S-9, KC-400",inactive; negative
same,mutagenic call,"End Point: IN VITRO CHROMOSOMAL ABERRATIONS, Test System: CHINESE HAMSTER OVARY CELLS (CHO), Metabolic Activation: NONE",active; positive (structural changes)
same,mutagenic call,"End Point: IN VITRO CHROMOSOMAL ABERRATIONS, Test System: CHINESE HAMSTER OVARY CELLS (CHO), Metabolic Activation: RAT, LIVER, S-9, AROCLOR 1254",active; positive (structural changes)
same,mutagenic call,"End Point: IN VITRO CHROMOSOMAL ABERRATIONS, Test System: CHL CELLS, Metabolic Activation: NONE",active; positive (structural changes)
same,mutagenic call,"End Point: IN VITRO CHROMOSOMAL ABERRATIONS, Test System: CHL CELLS, Metabolic Activation: RAT, LIVER, S-9, SODIUM PHENOBARBITAL AND 5,6-BENZOFLAVONE",active; positive (structural changes)
same,mutagenic call,"Test System: AMES SALMONELLA TYPHIMURIUM, Strain/Indicator: TA97, Metabolic Activation: HAMSTER, LIVER, S-9, AROCLOR 1254 (10%), Method: PREINCUBATION",active; positive
same,mutagenic call,[1],inactive; negative
same,mutagenic call,"Test System: AMES SALMONELLA TYPHIMURIUM, Strain/Indicator: TA97, Metabolic Activation: RAT, LIVER, S-9, AROCLOR 1254 (10%), Method: PREINCUBATION",active; positive
same,mutagenic call,"Test System: AMES SALMONELLA TYPHIMURIUM, Strain/Indicator: TA98(NR), Metabolic Activation: NONE, Method: PREINCUBATION",inactive; negative
same,mutagenic call,"Test System: AMES SALMONELLA TYPHIMURIUM, Strain/Indicator: TA98(NR), Metabolic Activation: RAT, LIVER, S-9, AROCLOR 1254, Method: PREINCUBATION",active; positive
same,mutagenic call,"Test System: AMES SALMONELLA TYPHIMURIUM, Strain/Indicator: TA98, Metabolic Activation: HAMSTER, LIVER, S-9, AROCLOR 1254 (10%), Method: PREINCUBATION",active; positive
same,mutagenic call,"Test System: AMES SALMONELLA TYPHIMURIUM, Strain/Indicator: TA98, Metabolic Activation: NONE, Method: STANDARD PLATE",inactive; negative
same,mutagenic call,"Test System: AMES SALMONELLA TYPHIMURIUM, Strain/Indicator: TA98, Metabolic Activation: PEA APICAL BUD S-9, Method: PREINCUBATION",active; positive
same,mutagenic call,"Test System: AMES SALMONELLA TYPHIMURIUM, Strain/Indicator: TA98, Metabolic Activation: PEA APICAL BUD S-9, Method: STANDARD PLATE",active; positive
same,mutagenic call,"Test System: AMES SALMONELLA TYPHIMURIUM, Strain/Indicator: TA98, Metabolic Activation: PLANT (PERSEA AMERICANA) S-117, Method: STANDARD PLATE",inactive; negative
same,mutagenic call,"Test System: AMES SALMONELLA TYPHIMURIUM, Strain/Indicator: TA98, Metabolic Activation: PLANT (ZEA MAYS) S-9, Method: STANDARD PLATE",inactive; negative
same,mutagenic call,"Test System: AMES SALMONELLA TYPHIMURIUM, Strain/Indicator: TA98, Metabolic Activation: RAT LIVER S-9, PHENOBARBITAL AND BETA-NAPHTHOFLAVONE, Method: PREINCUBATION",active; positive
same,mutagenic call,"Test System: AMES SALMONELLA TYPHIMURIUM, Strain/Indicator: TA98, Metabolic Activation: RAT, LIVER, S-9, AROCLOR 1254 (10%), Method: PREINCUBATION",active; positive
same,mutagenic call,"Test System: AMES SALMONELLA TYPHIMURIUM, Strain/Indicator: TA98, Metabolic Activation: RAT, LIVER, S-9, AROCLOR 1254, Method: PREINCUBATION",active; positive
same,mutagenic call,"Test System: AMES SALMONELLA TYPHIMURIUM, Strain/Indicator: TA98, Metabolic Activation: RAT, LIVER, S-9, AROCLOR 1254, Method: STANDARD PLATE",active; positive
same,mutagenic call,"Test System: AMES SALMONELLA TYPHIMURIUM, Strain/Indicator: TA98, Metabolic Activation: RAT, LIVER, S-9, PCB, Method: PREINCUBATION",active; positive
same,mutagenic call,"Test System: AMES SALMONELLA TYPHIMURIUM, Strain/Indicator: TA100(NR), Metabolic Activation: NONE, Method: PREINCUBATION",inactive; negative
same,mutagenic call,"Test System: AMES SALMONELLA TYPHIMURIUM, Strain/Indicator: TA100(NR), Metabolic Activation: RAT, LIVER, S-9, AROCLOR 1254, Method: PREINCUBATION",active; positive
same,mutagenic call,"Test System: AMES SALMONELLA TYPHIMURIUM, Strain/Indicator: TA100, Metabolic Activation: HAMSTER, LIVER, S-9, AROCLOR 1254 (10%), Method: PREINCUBATION",active; positive
same,mutagenic call,"Test System: AMES SALMONELLA TYPHIMURIUM, Strain/Indicator: TA100, Metabolic Activation: NONE, Method: STANDARD PLATE",inactive; negative
same,mutagenic call,"Test System: AMES SALMONELLA TYPHIMURIUM, Strain/Indicator: TA100, Metabolic Activation: PEA APICAL BUD S-9, Method: PREINCUBATION",active; positive
same,mutagenic call,"Test System: AMES SALMONELLA TYPHIMURIUM, Strain/Indicator: TA100, Metabolic Activation: PEA APICAL BUD S-9, Method: STANDARD PLATE",active; positive
same,mutagenic call,"Test System: AMES SALMONELLA TYPHIMURIUM, Strain/Indicator: TA100, Metabolic Activation: PLANT (PERSEA AMERICANA) S-117, Method: STANDARD PLATE",inactive; negative
same,mutagenic call,"Test System: AMES SALMONELLA TYPHIMURIUM, Strain/Indicator: TA100, Metabolic Activation: PLANT (ZEA MAYS) S-9, Method: STANDARD PLATE",inactive; negative
same,mutagenic call,"Test System: AMES SALMONELLA TYPHIMURIUM, Strain/Indicator: TA100, Metabolic Activation: RAT LIVER S-9, PHENOBARBITAL AND BETA-NAPHTHOFLAVONE, Method: PREINCUBATION",active; positive
same,mutagenic call,"Test System: AMES SALMONELLA TYPHIMURIUM, Strain/Indicator: TA100, Metabolic Activation: RAT, LIVER, S-9, AROCLOR 1254 (10%), Method: PREINCUBATION",active; positive
same,mutagenic call,"Test System: AMES SALMONELLA TYPHIMURIUM, Strain/Indicator: TA100, Metabolic Activation: RAT, LIVER, S-9, PCB, Method: PREINCUBATION",active; positive
same,mutagenic call,"Test System: AMES SALMONELLA TYPHIMURIUM, Strain/Indicator: TA1535, Metabolic Activation: HAMSTER, LIVER, S-9, AROCLOR 1254 (10%), Method: PREINCUBATION",inactive; negative
same,mutagenic call,"Test System: AMES SALMONELLA TYPHIMURIUM, Strain/Indicator: TA1535, Metabolic Activation: NONE, Method: PREINCUBATION",inactive; negative
same,mutagenic call,"Test System: AMES SALMONELLA TYPHIMURIUM, Strain/Indicator: TA1535, Metabolic Activation: RAT LIVER S-9, PHENOBARBITAL AND BETA-NAPHTHOFLAVONE, Method: PREINCUBATION",inactive; negative
same,mutagenic call,"Test System: AMES SALMONELLA TYPHIMURIUM, Strain/Indicator: TA1535, Metabolic Activation: RAT, LIVER, S-9, AROCLOR 1254 (10%), Method: PREINCUBATION",inactive; negative
same,mutagenic call,"Test System: AMES SALMONELLA TYPHIMURIUM, Strain/Indicator: TA1537, Metabolic Activation: NONE, Method: PREINCUBATION",inactive; negative
same,mutagenic call,"Test System: AMES SALMONELLA TYPHIMURIUM, Strain/Indicator: TA1537, Metabolic Activation: RAT LIVER S-9, PHENOBARBITAL AND BETA-NAPHTHOFLAVONE, Method: PREINCUBATION",active; positive
same,mutagenic call,"Test System: AMES SALMONELLA TYPHIMURIUM, Strain/Indicator: TA1538, Metabolic Activation: RAT, LIVER, S-9, AROCLOR 1254, Method: STANDARD PLATE",active; positive
same,mutagenic call,"Test System: AMES SALMONELLA TYPHIMURIUM, Strain/Indicator: TA1538, Metabolic Activation: RAT, LIVER, S-9, PHENOBARBITAL, Method: STANDARD PLATE",active; positive
same,mutagenic call,"Test System: AMES SALMONELLA TYPHIMURIUM, Strain/Indicator: YG1024, Metabolic Activation: PLANT (PERSEA AMERICANA) S-117, Method: STANDARD PLATE",inactive; negative
same,mutagenic call,"Test System: AMES SALMONELLA TYPHIMURIUM, Strain/Indicator: YG1024, Metabolic Activation: PLANT (ZEA MAYS) S-9, Method: STANDARD PLATE",inactive; negative
same,mutagenic call,"Test System: AMES SALMONELLA TYPHIMURIUM, Strain/Indicator: YG1029, Metabolic Activation: PLANT (PERSEA AMERICANA) S-117, Method: STANDARD PLATE",inactive; negative
same,mutagenic call,"Test System: AMES SALMONELLA TYPHIMURIUM, Strain/Indicator: YG1029, Metabolic Activation: PLANT (ZEA MAYS) S-9, Method: STANDARD PLATE",inactive; negative
same,mutagenic call,"Test System: E.COLI, Strain/Indicator: WP2UVRA, Metabolic Activation: NONE, Method: PREINCUBATION",inactive; negative
CC(=O)c1ccc2ccccc2c1,mutagenic call,[1],inactive; negative
same,mutagenic call,"Test System: AMES SALMONELLA TYPHIMURIUM, Strain/Indicator: TA97, Metabolic Activation: RAT, LIVER, S-9, AROCLOR 1254, Method: PREINCUBATION",inactive; negative
same,mutagenic call,"Test System: AMES SALMONELLA TYPHIMURIUM, Strain/Indicator: TA102, Metabolic Activation: NONE, Method: PREINCUBATION",inactive; negative
same,mutagenic call,"Test System: AMES SALMONELLA TYPHIMURIUM, Strain/Indicator: TA102, Metabolic Activation: RAT, LIVER, S-9, AROCLOR 1254, Method: PREINCUBATION",inactive; negative

# — PubChem BioAssay AID1259407 (Chemical Carcinogenesis Research Information System (CCRIS), 2018)
